The record followed here is patent US11753408B2, “Compounds and method for blocking transmission of malarial parasite” (The United States of America, as represented by the …, priority 2016, dated 2023).

For data set [1], the system named is Stage III-V gametocytes (blood stage P. falciparum parasites). Put plainly: In vitro drug activity on gametocytes (AlamarBlue viability assay). The following applies: read-out: Gametocyte EC50. It counts as cell-based, Plasmodium falciparum. The gist of the method:
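Viability was measured by AlamarBlue fluorescence (Ex 525/Em 598 nm) after 24 h dye incubation following 72 h compound exposure at 37° C, 5% CO2. Gametocytes, stage III–V from strains 3D7, HB3 and Dd2, were NAG/Percoll-enriched and plated at 20,000 cells/well.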
(In general: Alamar Blue is a resazurin reagent that responds to reducing activity.)

Data set [2] in a line: Microsomal stability (rat). The format is in vitro ADME. The note with it: rat microsomes.
Data set [3] relates to Asexual parasites of P. falciparum strain 3D7. Put plainly: In vitro drug activity on asexual parasites (SYBR Green assay). The format is cell-based, Plasmodium falciparum. The gist of the method: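 SYBR Green I fluorescence (ex 490, em 520 nm) was read after freeze-thaw lysis and 30 min staining at room temperature. Before that, drug-treated cultures (0.5% parasitemia, 2% hematocrit, DMSO ≤0.5%) were incubated 72 h, in duplicate.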

Data set [4] can be described thus: Solubility at pH 7.4. It counts as physicochemical.
The target in data set [5] is mTOR (Homo sapiens, UniProt P42345). In words: mTOR activity (no method described). The format is biochemical.
Data set [6] can be described thus: PAMPA permeability. The format is in vitro ADME. Background: PAMPA measures passive passage across an artificial lipid membrane.

On to `NCc1cccc(-c2ccc3ncc4ccc(=O)n(-c5ccc(C(=O)N6CCOCC6)cc5)c4c3c2)c1` [Compound 180], for which the EC50 – broadly, the midpoint of the concentration-response curve – came to 1820 nM in data set [1] and 931 nM in data set [3]. For the same molecule, the “Microsomal Stability (rat) T1/2” value in data set [2] was over 30 min. For the same molecule, in data set [4], the “Sol @ pH 7.4” value was found to be 43.7 ug/mL. The mTOR in data set [5] was determined as 2454 nM. Further, the PAMPA Permeability in data set [6] is 3.8 ×10⁻⁶ cm/s.
As to `NC1(c2ccc(-c3ccc4ncc5ccc(=O)n(-c6ccc(C(=O)N7CCOCC7)cc6)c5c4c3)cc2)CCC1` [Compound 181], the EC50 in data set [1] amounted to 1920 nM; in data set [3] it was 1580 nM. Also, the “Microsomal Stability (rat) T1/2” value in data set [2] is recorded as over 30 min. Moreover, the “Sol @ pH 7.4” value in data set [4] is recorded as 17.3 ug/mL. In data set [5], this molecule gave a mTOR of 830.4 nM. This molecule registered a PAMPA Permeability in data set [6] of 36.3 ×10⁻⁶ cm/s.
As for `NCCc1ccc(-c2ccc3ncc4ccc(=O)n(-c5ccc(C(=O)N6CCOCC6)cc5)c4c3c2)cc1` [Compound 183], the EC50 was 131 nM in data set [1] and 49.8 nM in data set [3]. For the same molecule, the “Microsomal Stability (rat) T1/2” value in data set [2] is over 30 min. For the same molecule, the “Sol @ pH 7.4” value in data set [4] amounted to 28.4 ug/mL. In data set [5], the mTOR worked out at 794.5 nM. In addition, the PAMPA Permeability in data set [6] was under 1 ×10⁻⁶ cm/s.
Take `O=C(c1ccc(-n2c(=O)ccc3cnc4ccc(-c5ccc(CN6CCCC6)cc5)cc4c32)cc1)N1CCOCC1` [Compound 184]: the EC50 in data set [1] amounted to 821 nM; in data set [3], 171 nM. Besides, the “Microsomal Stability (rat) T1/2” value in data set [2] is over 30 min. Besides, in data set [4], the “Sol @ pH 7.4” value is on record as 56.1 ug/mL. The molecule also yielded a mTOR in data set [5] of 18050 nM. The PAMPA Permeability in data set [6] was found to be 292 ×10⁻⁶ cm/s.
Take `O=C(c1ccc(-n2c(=O)ccc3cnc4ccc(-c5ccc(CN6CCOCC6)cc5)cc4c32)cc1)N1CCOCC1` [Compound 185]: the EC50 in data set [1] came out at 1140 nM; in data set [3], 352 nM. The “Microsomal Stability (rat) T1/2” value in data set [2] is reported as 15.1 min. The “Sol @ pH 7.4” value in data set [4] came to 3.4 ug/mL. Besides, the mTOR in data set [5] came out at 50000 nM. For the same molecule, the PAMPA Permeability in data set [6] was 35.5 ×10⁻⁶ cm/s.
As for `CN(C)C(=O)c1cccc(-n2c(=O)ccc3cnc4ccc(-c5ccc(N)nc5)cc4c32)c1` [Compound 332], the EC50 in data set [1] stood at 1520 nM; in data set [3] it was 859 nM. Moreover, in data set [2], the “Microsomal Stability (rat) T1/2” value is over 30.0 min. Further, the “Sol @ pH 7.4” value in data set [4] is over 64.0 ug/mL. This molecule displayed a mTOR in data set [5] of 494.9 nM. In data set [6], this molecule yielded a PAMPA Permeability of 31.9 ×10⁻⁶ cm/s.
In the case of `Nc1ccc(-c2ccc3ncc4ccc(=O)n(-c5ccc(C(=O)N6CCOCC6)cc5)c4c3c2)cn1` [Compound 334], the results for the EC50 in data set [1] and in data set [3] were 19.7 nM and 8.21 nM, respectively. In addition, the “Microsomal Stability (rat) T1/2” value in data set [2] is listed as over 30.0 min. The “Sol @ pH 7.4” value in data set [4] was 30 ug/mL. For the same molecule, the mTOR in data set [5] is listed as 88.72 nM. This molecule displayed a PAMPA Permeability in data set [6] of 14.9 ×10⁻⁶ cm/s.
Turning to `CNC(=O)c1ccc(-n2c(=O)ccc3cnc4ccc(-c5ccc(N)nc5)cc4c32)cc1` [Compound 335], the EC50 amounted to 17.7 nM in data set [1] and 14.4 nM in data set [3]. In data set [2], the “Microsomal Stability (rat) T1/2” value is listed as over 30.0 min. The “Sol @ pH 7.4” value in data set [4] amounted to 2.8 ug/mL. Also, the mTOR in data set [5] was determined as 28.21 nM. In data set [6], this molecule showed a PAMPA Permeability of under 2.2 ×10⁻⁶ cm/s.
In the case of `NC(=O)c1ccc(-n2c(=O)ccc3cnc4ccc(-c5ccc(N)nc5)cc4c32)cc1` [Compound 336], the results for the EC50 in data set [1] and in data set [3] were 41 nM and 10.2 nM, respectively. Moreover, the “Microsomal Stability (rat) T1/2” value in data set [2] is over 30.0 min. For the same molecule, in data set [4], the “Sol @ pH 7.4” value is reported as under 1.0 ug/mL. The mTOR in data set [5] stood at 19.71 nM. This molecule came in with a PAMPA Permeability in data set [6] of under 3.6 ×10⁻⁶ cm/s.
As to `Cc1ccc(C#N)cc1-n1c(=O)n(C)c2cnc3ccc(-c4ccc(Cl)cc4)cc3c21` [Compound 400], the EC50 in data set [1] came out at 294 nM; in data set [3], 165 nM. Moreover, the “Microsomal Stability (rat) T1/2” value in data set [2] was over 30.0 min. Moreover, in data set [4], the “Sol @ pH 7.4” value is under 1.0 ug/mL. This molecule gave a mTOR in data set [5] of 100000 nM. Further, the PAMPA Permeability in data set [6] turned out to be 1460 ×10⁻⁶ cm/s.
